Experimental data from ChEMBL document CHEMBL5375956, “Discovery of Pyrazolo[1,5-a]pyrimidine Derivative as a Novel and Selective ALKBH5 Inhibitor for the Treatment of AML” (J Med Chem, 2023).
Active and inactive are the calls of the source. No cut-off for these calls is given here.

Legend:
[1] = target: T1, Alpha-ketoglutarate-dependent dioxygenase FTO (Homo sapiens, UniProt Q9C0B1); assay: Inhibition of FTO (32 to 505 residues)(unknown origin) expressed in Escherichia coli BL21(DE3) by FP assay
Target sequence in this assay (Q9C0B1 whole entry, the tested form may be a part): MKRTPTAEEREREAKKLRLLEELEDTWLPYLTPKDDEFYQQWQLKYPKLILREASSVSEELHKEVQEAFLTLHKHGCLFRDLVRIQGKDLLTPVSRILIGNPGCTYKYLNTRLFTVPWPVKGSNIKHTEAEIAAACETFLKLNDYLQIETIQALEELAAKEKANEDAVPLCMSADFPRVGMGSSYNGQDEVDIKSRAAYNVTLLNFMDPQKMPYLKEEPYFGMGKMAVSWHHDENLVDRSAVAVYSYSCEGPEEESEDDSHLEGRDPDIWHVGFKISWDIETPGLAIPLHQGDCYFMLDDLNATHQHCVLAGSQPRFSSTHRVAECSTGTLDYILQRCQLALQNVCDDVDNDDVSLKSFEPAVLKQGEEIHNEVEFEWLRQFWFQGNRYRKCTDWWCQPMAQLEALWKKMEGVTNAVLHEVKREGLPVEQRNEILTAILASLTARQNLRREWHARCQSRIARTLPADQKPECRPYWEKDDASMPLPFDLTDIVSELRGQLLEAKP

RNA demethylase ALKBH5 [2] = target: T2, RNA demethylase ALKBH5 (Homo sapiens, UniProt Q6P6C2); assay: Inhibition of ALKBH5 (66 to 292 residues)(unknown origin) expressed in Escherichia coli BL21(DE3) using 5'-TAGACATTGCCATTCTCGATAGG (m6A)-TC CGGTCAAACCTAGAC GAATTCCA-3' as substrate incubated for 2 hrs by restriction endonuclease digestion assay; details: dose 25-200 µM
Target sequence in this assay (Q6P6C2 2-394 limits assumed): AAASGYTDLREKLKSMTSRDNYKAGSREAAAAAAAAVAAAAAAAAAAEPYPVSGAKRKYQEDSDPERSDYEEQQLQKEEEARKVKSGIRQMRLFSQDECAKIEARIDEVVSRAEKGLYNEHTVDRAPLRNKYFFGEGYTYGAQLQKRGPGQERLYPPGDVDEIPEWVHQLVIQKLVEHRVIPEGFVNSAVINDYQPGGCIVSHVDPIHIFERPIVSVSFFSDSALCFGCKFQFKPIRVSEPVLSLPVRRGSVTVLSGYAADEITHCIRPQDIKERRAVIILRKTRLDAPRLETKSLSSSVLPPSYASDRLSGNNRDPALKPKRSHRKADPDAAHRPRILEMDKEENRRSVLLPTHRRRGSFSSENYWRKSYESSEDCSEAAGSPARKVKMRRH

RNA demethylase ALKBH5 [3] = target: T2, RNA demethylase ALKBH5; assay: Binding affinity to biotinylated ALKBH5 (66 to 292 residues)(unknown origin) expressed in Escherichia coli BL21(DE3) assessed as equilibrium dissociation constant by BLI assay
Target sequence in this assay (Q6P6C2 whole entry, the tested form may be a part): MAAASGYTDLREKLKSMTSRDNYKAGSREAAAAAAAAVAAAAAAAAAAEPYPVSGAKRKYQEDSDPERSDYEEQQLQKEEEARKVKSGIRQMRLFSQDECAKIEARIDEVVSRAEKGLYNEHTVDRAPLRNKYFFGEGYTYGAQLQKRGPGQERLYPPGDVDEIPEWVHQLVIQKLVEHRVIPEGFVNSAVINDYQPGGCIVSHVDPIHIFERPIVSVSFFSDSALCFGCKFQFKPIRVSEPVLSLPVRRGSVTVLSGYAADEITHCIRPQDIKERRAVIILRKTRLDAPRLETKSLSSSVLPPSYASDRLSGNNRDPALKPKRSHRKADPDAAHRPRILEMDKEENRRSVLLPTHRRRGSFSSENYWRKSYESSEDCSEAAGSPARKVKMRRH

[4] = target: T1, Alpha-ketoglutarate-dependent dioxygenase FTO; assay: Binding affinity to NT-647-NHS fluorescent dye-labeled FTO (32 to 505 residues)(unknown origin) expressed in Escherichia coli BL21(DE3) using m6A-ssDNA as substrate incubated for 15 mins by MST assay
Target sequence in this assay (Q9C0B1 whole entry, looked up, the tested form may be a part): as the sequence (Q9C0B1 whole entry, the tested form may be a part) above

RNA demethylase ALKBH5 [5] = target: RNA demethylase ALKBH5 (Homo sapiens, UniProt Q6P6C2, R130A); assay: Binding affinity to NT-647-NHS fluorescent dye-labeled ALKBH5 R130A mutant (unknown origin) expressed in Escherichia coli BL21(DE3) using m6A-ssDNA as substrate assessed as dissociation constant incubated for 15 mins by MST assay
RNA demethylase ALKBH5 [6] = target: RNA demethylase ALKBH5 (Homo sapiens, UniProt Q6P6C2, Y139A); assay: Binding affinity to NT-647-NHS fluorescent dye-labeled ALKBH5 Y139A mutant (unknown origin) expressed in Escherichia coli BL21(DE3) using m6A-ssDNA as substrate assessed as dissociation constant incubated for 15 mins by MST assay
RNA demethylase ALKBH5 [7] = target: T2, RNA demethylase ALKBH5; assay: Inhibition of ALKBH5 in human MOLM-13 cells assessed as increase in m6A RNA level by colorimetric assay; type: cell-based; details: dose 10-20 µM
Target sequence in this assay (Q6P6C2 2-394 limits assumed): as the sequence (Q6P6C2 2-394 limits assumed) above

HUVEC [8] = assay: Antiproliferative activity against HUVEC cells assessed as inhibition of cell proliferation incubated for 72 hrs by Cell Titer Luminescence assay; type: functional, cell-based; details: Homo sapiens
MOLM-13 [9] = assay: Induction of cell cycle arrest at […] phase in human MOLM-13 cells at 20 uM incubated for 48 hrs by […]PI staining based flow cytometry; type: functional
MV4-11 [10] = assay: Induction of apoptosis in human MV4-11 cells assessed as early apoptosis cells at 5 uM incubated for 48 hrs by Annexin V-FITC/PI staining based flow cytometry (reference value: 1.24 %); type: functional
MV4-11 [11] = assay: Induction of apoptosis in human MV4-11 cells assessed as necrotic cells at 5 uM incubated for 48 hrs by Annexin V-FITC/PI staining based flow cytometry (reference value: 1.81 %); type: functional
MV4-11 [12] = assay: Induction of apoptosis in human MV4-11 cells assessed as late apoptosis cells at 10 uM incubated for 48 hrs by Annexin V-FITC/PI staining based flow cytometry (reference value: 7.17 %); type: functional
MOLM-13 [13] = assay: Downregulation of TACC3 mRNA level in human MOLM-13 cells assessed as half life of expression at 20 umol/L incubated for 24 hrs by qRT-PCR analysis (reference value: 2.87 hrs); type: functional, cell-based; details: dose 20.0 µmol/L
MV4-11 [14] = assay: Downregulation of c-Myc mRNA level in human MV4-11 cells at 5 to 10 uM incubated for 48 hrs by qRT-PCR analysis; type: functional, cell-based; details: dose 5-10 µM
HEK293 [15] = assay: Effect on TACC3 mRNA level in HEK293 cells at 5 to 10 uM incubated for 48 hrs by qRT-PCR analysis; type: functional, cell-based; details: Homo sapiens, dose 5-10 µM
HEK293 [16] = assay: Effect on TACC3 level in HEK293 cells upto 10 uM incubated for 48 hrs by Western blot analysis; type: functional, cell-based; details: Homo sapiens
HUVEC [17] = assay: Effect on c-Myc level in HUVEC cells upto 10 uM incubated for 48 hrs by Western blot analysis; type: functional, cell-based; details: Homo sapiens
[18] = Metabolic stability in rat plasma assessed as half life measured upto 240 mins by LC-MS/MS analysis; type: ADME, cell-free
[19] = Apparent oral clearance in Sprague-Dawley rat at 2 mg/kg, iv measured for 1 to 1440 mins by LC-MS/MS analysis; type: ADME, organism-based; details: in vivo, time 1-1440 min
[20] = Apparent volume of distribution during terminal phase in Sprague-Dawley rat at 10 mg/kg, po measured for 1 to 1440 mins by LC-MS/MS analysis; type: ADME, organism-based; details: in vivo, time 1-1440 min, read-out: Vz/F
MV4-11 [21] = assay: Antitumor activity against human MV4-11 cells xenografted in nude mouse assessed as tumor growth inhibition at 40 mg/kg, ip treated every day for 14 days relative to control; type: functional; details: MV4-11, 336 h, time 14 day, read-out: TGI
[22] = Toxicity in nude mouse xenografted with human MV4-11 cells assessed as body weight change at 10 to 40 mg/kg, ip treated every day for 14 days; type: organism-based; details: in vivo, 336 h, dose 10-40 mg/kg, time 14 day
[23] = Toxicity in nude mouse xenografted with human MV4-11 cells assessed as spleen weight change at 10 to 40 mg/kg, ip treated every day for 14 days; type: organism-based; details: in vivo, 336 h, dose 10-40 mg/kg, time 14 day
[24] = Toxicity in nude mouse xenografted with human MV4-11 cells assessed as kidney weight change at 10 to 40 mg/kg, ip treated every day for 14 days; type: organism-based; details: in vivo, 336 h, dose 10-40 mg/kg, time 14 day
[25] = Toxicity in nude mouse xenografted with human MV4-11 cells assessed as liver damage at 10 to 40 mg/kg, ip treated every day for 14 days by H and E staining based analysis; type: organism-based; details: in vivo, 336 h, dose 10-40 mg/kg, time 14 day
[26] = Toxicity in nude mouse xenografted with human MV4-11 cells assessed as spleen damage at 10 to 40 mg/kg, ip treated every day for 14 days by H and E staining based analysis; type: organism-based; details: in vivo, 336 h, dose 10-40 mg/kg, time 14 day
[27] = Toxicity in nude mouse xenografted with human MV4-11 cells assessed as lung damage at 10 to 40 mg/kg, ip treated every day for 14 days by H and E staining based analysis; type: organism-based; details: in vivo, 336 h, dose 10-40 mg/kg, time 14 day
[28] = Toxicity in nude mouse xenografted with human MV4-11 cells assessed as kidney damage at 10 to 40 mg/kg, ip treated every day for 14 days by H and E staining based analysis; type: organism-based; details: in vivo, 336 h, dose 10-40 mg/kg, time 14 day

RNA demethylase ALKBH5 (Homo sapiens, UniProt Q6P6C2, Y139A), sequence (Q6P6C2 2-394 Y139A limits assumed): as the sequence (Q6P6C2 2-394 limits assumed) above, with Y138A counted along it
RNA demethylase ALKBH5 (Homo sapiens, UniProt Q6P6C2, R130A), sequence (Q6P6C2 2-394 R130A limits assumed): as the sequence (Q6P6C2 2-394 limits assumed) above, with R129A counted along it

- IC50 [1]: > 200 µM
- inhibition (RNA demethylase ALKBH5 [2]): Dose-Dependent Effect
- Kd (RNA demethylase ALKBH5 [3]): 6.62 µM
- Activity [4]: inactive
- Kd (RNA demethylase ALKBH5 [5]): 373 µM
- Kd (RNA demethylase ALKBH5 [6]): 290 µM
- inhibition (RNA demethylase ALKBH5 [7]): Dose-Dependent Effect
- half-life [18]: 4.18 h
- CL/F [19]: 5 mL/min/kg
- Vd/F [20]: 6.18 L/kg
Structure (SMILES): O=C(OCc1ccc(C(F)(F)F)cc1)c1ccc(-c2cc3ncc(C(=O)c4c(O)ccc([N+](=O)[O-])c4O)cn3n2)cc1
- IC50 (HUVEC [8]): 165 µM
- Activity (MOLM-13 [9]): Active
- Activity (MV4-11 [10]): 1.44%
- Activity (MV4-11 [11]): 3.62%
- Activity (MV4-11 [12]): 55.4%
- T1/2 (MOLM-13 [13]): 2.06 h
- Activity (MV4-11 [14]): Active
- Activity (HEK293 [15]): inactive
- Activity (HEK293 [16]): inactive
- Activity (HUVEC [17]): inactive
- inhibition in vivo at 40 mg/kg (MV4-11 [21]): 70.5%
- Activity [22]: Non-Toxic
- Activity [23]: Non-Toxic
- Activity [24]: Non-Toxic
- Activity [25]: Non-Toxic
- Activity [26]: Non-Toxic
- Activity [27]: Non-Toxic
- Activity [28]: Non-Toxic
